Row | melting point | Compound
1 | 155.4 to 157.5 °C | CCC(=O)NS(=O)(=O)c1ccc(NC(=O)Cc2ccc(Cl)c(Oc3cc(Cl)cc(C#N)c3)c2F)c(Cl)c1.[Na]
2 | 199.3 to 199.6 °C | Cl.N#Cc1cc(Cl)cc(Oc2c(Cl)ccc(CC(=O)Nc3ccc(S(=O)(=O)NC(=O)CCN)cc3Cl)c2F)c1
3 | 151.7 to 152.3 °C | COCC(=O)NS(=O)(=O)c1ccc(NC(=O)Cc2ccc(Cl)c(Oc3cc(Cl)cc(C#N)c3)c2F)c(Cl)c1.[Na]
4 | 178 to 179.5 °C | N#Cc1cc(Cl)cc(Oc2c(Cl)ccc(CC(=O)Nc3ccc(S(=O)(=O)NC(=O)CO)cc3Cl)c2F)c1.[Na]
5 | 110.3 to 110.5 °C | Cc1cc(C(=O)CN2CCOCC2)ccc1NC(=O)Cc1ccc(C)c(Oc2cc(Cl)cc(C#N)c2)c1.O=C(O)C(F)(F)F
6 | 133.1 to 140.7 °C | COCCC(=O)NS(=O)(=O)c1ccc(NC(=O)Cc2ccc(Cl)c(Oc3cc(Cl)cc(C#N)c3)c2F)c(Cl)c1.[Na]
7 | 157.6 to 159.2 °C | CCCCC(=O)NS(=O)(=O)c1ccc(NC(=O)Cc2ccc(Cl)c(Oc3cc(Cl)cc(C#N)c3)c2F)c(Cl)c1.[Na]
8 | 159.3 to 163.4 °C | CC(C)CC(=O)NS(=O)(=O)c1ccc(NC(=O)Cc2ccc(Cl)c(Oc3cc(Cl)cc(C#N)c3)c2F)c(Cl)c1.[Na]
9 | 195.3 to 197.2 °C | CCN(CC)CC(=O)NS(=O)(=O)c1ccc(NC(=O)Cc2ccc(Cl)c(Oc3cc(Cl)cc(C#N)c3)c2F)c(Cl)c1.Cl
10 | 195.6 to 197 °C | CC(C)CCC(=O)NS(=O)(=O)c1ccc(NC(=O)Cc2ccc(Cl)c(Oc3cc(Cl)cc(C#N)c3)c2F)c(Cl)c1.[Na]
11 | 223.3 to 225 °C | Cl.N#Cc1cc(Cl)cc(Oc2c(Cl)ccc(CC(=O)Nc3ccc(S(=O)(=O)NC(=O)CN4CCOCC4)cc3Cl)c2F)c1
12 | 158.8 to 162 °C | CCC(=O)NS(=O)(=O)c1ccc(NC(=O)Cc2ccc(C)c(Oc3cc(Cl)cc(C#N)c3)c2F)c(Cl)c1.[Na]
13 | 169 to 180.3 °C | Cc1cc(S(=O)(=O)NC(=O)[C@@H](N)C(C)C)ccc1NC(=O)Cc1ccc(Cl)c(Oc2cc(Cl)cc(C#N)c2)c1F.Cl
14 | 261.8 to 263.6 °C | Cc1cc(S(=O)(=O)NC(=O)c2cccnc2)ccc1NC(=O)Cc1ccc(Cl)c(Oc2cc(Cl)cc(C#N)c2)c1F.Cl
15 | 210.5 to 214 °C | N#Cc1cc(Cl)cc(Oc2cc(CC(=O)Nc3ccc(S(N)(=O)=O)cc3)ccc2Cl)c1 [Compound I-1, 2-[4-Chloro-3-(3-chloro-5-cyano-phenoxy)-phenyl]-N-(4-sulfamoyl-phenyl)-acetamide]
16 | 218 to 219 °C | N#Cc1cc(C#N)cc(Oc2cc(CC(=O)Nc3ccc(S(N)(=O)=O)cc3)ccc2Cl)c1 [Compound I-2, 2-[4-Chloro-3-(3,5-dicyano-phenoxy)-phenyl]-N-(4-sulfamoyl-phenyl)-acetamide]
17 | 190.1 to 192.2 °C | Cc1cc(OCCCS(N)(=O)=O)ccc1NC(=O)Cc1ccc(Cl)c(Oc2cc(Cl)ccc2Br)c1 [Compound I-3, 2-[3-(2-Bromo-5-chloro-phenoxy)-4-chloro-phenyl]-N-[2-methyl-4-(3-sulfamoyl-propoxy)-phenyl]-acetamide]
18 | 260.1 to 261.9 °C | NS(=O)(=O)c1ccc(NC(=O)Cc2ccc(Cl)c(Oc3cc(Cl)ccc3Br)c2)cc1 [Compound I-4, 2-[3-(2-Bromo-5-chloro-phenoxy)-4-chloro-phenyl]-N-(4-sulfamoyl-phenyl)-acetamide]
19 | 135.7 to 138.1 °C | N#Cc1cc(C#N)cc(Oc2c(Cl)ccc(CC(=O)Nc3ccc(S(N)(=O)=O)cc3)c2F)c1 [Compound I-9, 2-[4-Chloro-3-(3,5-dicyano-phenoxy)-2-fluoro-phenyl]-N-(4-sulfamoyl-phenyl)-acetamide]
20 | 247 to 249 °C | NS(=O)(=O)c1ccc(NC(=O)Cc2ccc(Cl)c(Oc3cc(Cl)cc(Cl)c3Cl)c2F)cc1 [Compound I-10, 2-[4-Chloro-2-fluoro-3-(2,3,5-trichloro-phenoxy)-phenyl]-N-(4-sulfamoyl-phenyl)-acetamide]
21 | 165.8 to 168.1 °C | Cc1ccc(CC(=O)Nc2ccc(S(N)(=O)=O)cc2)cc1Oc1cc(F)cc(C#N)c1 [Compound I-11, 2-[3-(3-Cyano-5-fluoro-phenoxy)-4-methyl-phenyl]-N-(4-sulfamoyl-phenyl)-acetamide]
22 | 131.1 to 132.2 °C | Cc1ccc(CC(=O)Nc2ccccc2Cl)cc1Oc1cc(F)cc(C#N)c1 [Compound I-12, N-(2-Chloro-phenyl)-2-[3-(3-cyano-5-fluoro-phenoxy)-4-methyl-phenyl]-acetamide]

Row | melting point | Compound
23 | 214 to 218 °C | N#Cc1cc(Oc2c(Cl)ccc(CC(=O)Nc3ccc(S(N)(=O)=O)cc3)c2F)cc(C(F)F)c1 [Compound I-13, 2-[4-Chloro-3-(3-cyano-5-difluoromethyl-phenoxy)-2-fluoro-phenyl]-N-(4-sulfamoyl-phenyl)-acetamide]
24 | 169.5 to 171 °C | N#Cc1cc(Oc2c(Cl)ccc(CC(=O)Nc3ccccc3Cl)c2F)cc(C(F)F)c1 [Compound I-14, 2-[4-Chloro-3-(3-cyano-5-difluoromethyl-phenoxy)-2-fluoro-phenyl]-N-(2-chloro-phenyl)-acetamide]
25 | 193.7 to 195.9 °C | CCc1ccc(CC(=O)Nc2ccc(S(N)(=O)=O)cc2)cc1Oc1cc(Cl)ccc1Br [Compound I-15, 2-[3-(2-Bromo-5-chloro-phenoxy)-4-ethyl-phenyl]-N-(4-sulfamoyl-phenyl)-acetamide]
26 | 154 to 155.5 °C | CCc1ccc(CC(=O)Nc2ccccc2Cl)cc1Oc1cc(Cl)ccc1Br [Compound I-16, 2-[3-(2-Bromo-5-chloro-phenoxy)-4-ethyl-phenyl]-N-(2-chloro-phenyl)-acetamide]
27 | 198.1 to 202.6 °C | CCc1ccc(CC(=O)Nc2ccc(S(N)(=O)=O)cc2)cc1Oc1cc(Cl)ccc1C#N [Compound I-17, 2-[3-(5-Chloro-2-cyano-phenoxy)-4-ethyl-phenyl]-N-(4-sulfamoyl-phenyl)-acetamide]
28 | 168 to 169.9 °C | CCc1ccc(CC(=O)Nc2ccccc2Cl)cc1Oc1cc(Cl)ccc1C#N [Compound I-18, 2-[3-(5-Chloro-2-cyano-phenoxy)-4-ethyl-phenyl]-N-(2-chloro-phenyl)-acetamide]
29 | 190 to 193.4 °C | CCc1ccc(CC(=O)Nc2ccc(S(N)(=O)=O)cc2)cc1Oc1cc(Cl)ccc1Cl [Compound I-19, 2-[3-(2,5-Dichloro-phenoxy)-4-ethyl-phenyl]-N-(4-sulfamoyl-phenyl)-acetamide]
30 | 222.5 to 225 °C | CCc1ccc(CC(=O)Nc2ccc(S(N)(=O)=O)cc2)cc1Oc1c(Cl)cccc1Cl [Compound I-20, 2-[3-(2,6-Dichloro-phenoxy)-4-ethyl-phenyl]-N-(4-sulfamoyl-phenyl)-acetamide]
31 | 146.3 to 147.1 °C | CCc1ccc(CC(=O)Nc2ccccc2Cl)cc1Oc1cc(Cl)ccc1Cl [Compound I-21, N-(2-Chloro-phenyl)-2-[3-(2,5-dichloro-phenoxy)-4-ethyl-phenyl]-acetamide]
32 | 216.1 to 221.3 °C | CCc1ccc(CC(=O)Nc2ccc(S(N)(=O)=O)cc2)cc1Oc1cc(Cl)cc(Br)c1 [Compound I-22, 2-[3-(3-Bromo-5-chloro-phenoxy)-4-ethyl-phenyl]-N-(4-sulfamoyl-phenyl)-acetamide]
33 | 107 to 110.5 °C | CCc1ccc(CC(=O)Nc2ccccc2Cl)cc1Oc1c(Cl)cccc1Cl [Compound I-23, N-(2-Chloro-phenyl)-2-[3-(2,6-dichloro-phenoxy)-4-ethyl-phenyl]-acetamide]
34 | 119.9 to 122.2 °C | CCc1ccc(CC(=O)Nc2ccccc2Cl)cc1Oc1cc(Cl)cc(Br)c1 [Compound I-24, 2-[3-(3-Bromo-5-chloro-phenoxy)-4-ethyl-phenyl]-N-(2-chloro-phenyl)-acetamide]
35 | 204.1 to 206.7 °C | CC(C)c1ccc(CC(=O)Nc2ccc(S(N)(=O)=O)cc2)cc1Oc1cc(Cl)ccc1Br [Compound I-26, 2-[3-(2-Bromo-5-chloro-phenoxy)-4-isopropyl-phenyl]-N-(4-sulfamoyl-phenyl)-acetamide]
36 | 142.9 to 143.6 °C | CC(C)c1ccc(CC(=O)Nc2ccccc2Cl)cc1Oc1cc(Cl)ccc1Br [Compound I-27, 2-[3-(2-Bromo-5-chloro-phenoxy)-4-isopropyl-phenyl]-N-(2-chloro-phenyl)-acetamide]
37 | 182.6 to 196.5 °C | N#Cc1cc(C#N)cc(Oc2c(Cl)ccc(CC(=O)Nc3ccccc3Cl)c2F)c1 [Compound I-28, 2-[4-Chloro-3-(3,5-dicyano-phenoxy)-2-fluoro-phenyl]-N-(2-chloro-phenyl)-acetamide]
38 | 236.9 to 239.3 °C | Cc1ccc(CC(=O)Nc2ccc(S(N)(=O)=O)cc2)cc1Oc1cc(Cl)ccc1Br [Compound I-30, 2-[3-(2-Bromo-5-chloro-phenoxy)-4-methyl-phenyl]-N-(4-sulfamoyl-phenyl)-acetamide]
39 | 200.5 to 203.5 °C | Cc1cc(S(N)(=O)=O)ccc1NC(=O)Cc1ccc(C)c(Oc2cc(Cl)ccc2Br)c1 [Compound I-31, 2-[3-(2-Bromo-5-chloro-phenoxy)-4-methyl-phenyl]-N-(2-methyl-4-sulfamoyl-phenyl)-acetamide]
40 | 248.4 to 250.8 °C | Cc1cc(S(N)(=O)=O)ccc1NC(=O)Cc1ccc(Cl)c(Oc2cc(C#N)cc(C#N)c2)c1F [Compound I-32, 2-[4-Chloro-3-(3,5-dicyano-phenoxy)-2-fluoro-phenyl]-N-(2-methyl-4-sulfamoyl-phenyl)-acetamide]
41 | 133.9 to 135.9 °C | Cc1ccc(CC(=O)Nc2ccccc2Cl)cc1Oc1cc(Cl)ccc1Br [Compound I-33, 2-[3-(2-Bromo-5-chloro-phenoxy)-4-methyl-phenyl]-N-(2-chloro-phenyl)-acetamide]
42 | 175.1 to 177.5 °C | Cc1ccc(CC(=O)Nc2ccccc2Cl)cc1Oc1cc(C#N)cc(C#N)c1 [Compound I-34, N-(2-Chloro-phenyl)-2-[3-(3,5-dicyano-phenoxy)-4-methyl-phenyl]-acetamide]
43 | 206.9 to 209.9 °C | CCc1ccc(CC(=O)Nc2ccc(S(N)(=O)=O)cc2)cc1Oc1cc(Cl)cc(Br)c1Cl [Compound I-35, 2-[3-(3-Bromo-2,5-dichloro-phenoxy)-4-ethyl-phenyl]-N-(4-sulfamoyl-phenyl)-acetamide]

— patent publication US7166738B2, “Non-nucleoside reverse transcriptase inhibitors” (Roche Palo Alto LLC, priority 2004, dated 2007)
